Patent publication US20090093443A1, “COMBINATIONS OF 4- BROMO-2-(4-CHLOROPHENYL)-5-(TRIFLUOROMETHYL)-1H-PYRROLE-3-CARBONITRILE AND BIOCIDAL COMPOUNDS” (JASSEN PHARMACEUTICA N.V., priority 2006, published 2009)

Tested on: animal fouling
Test: Exposure in the Oosterschelde of painted PVC boards
Details: for Coverage CO (percentage coverage) / Dry weight Dw (dry weight of fouling organisms) / Fresh weight Fw (fresh weight of fouling organisms): 18 weeks exposure, each active 2.78% in dry paint film; for Coverage CO (percentage coverage): mean of front and backsides of panels; for Dry weight Dw (dry weight of fouling organisms) / Fresh weight Fw (fresh weight of fouling organisms): total of front and backsides; for Coverage % Eo (observed efficacy) / Dry weight % Eo (observed efficacy) / Fresh weight % Eo (observed efficacy): fouling inhibition vs control, 18 weeks, each active 2.78% in dry paint; for Coverage % Eo (observed efficacy): by coverage; for Dry weight % Eo (observed efficacy): by dry weight; for Fresh weight % Eo (observed efficacy): by fresh weight
From the text: • Test model: exposure in the Oosterschelde of painted PVC boards • Name of the primary compound: 4-bromo-2-(4-chloro-phenyl)-5-(trifluoromethyl)-1H-pyrrole-3-carbonitrile as component (I) • Name of the combination partners: capsaicine as component (II-d); • clonidine as component (II-e); • zosteric acid as component (II-r). • Test formulations: Paint formulation comprising xylene (47.7%), light aromatic solvent naphtha (CAS 64742-95-6) (16.2%), propylene oxide (0.06%), and zinc oxid (2.24%). Paint was diluted with 10% xylene to obtain the wet paint which was applied to the panels. • Dosage: Individual test compounds were added at a concentration of 1.8% by weight in the wet paint, resulting in 2.78% by weight in the dry paint film. • Test specimens: PVC boards with dimensions of 10×2×0.5 cm. […] Percentage coverage of the panels by fouling organisms as estimated visually. • 2. Fresh weight of fouling organisms on panels in gram. • 3. Dry weight of fouling organisms on panels in gram. Synergy evaluation: Synergy was tested according to the method of Limpel (Limpel, L. E., Schuldt, P. H., and Lamont, D. Weed Control Conf. 16: 48-53, 1962) as described in Colby (Colby, S. R., Weeds 15: 20-22, 1967) and Richer (Richer, D. L., Pesticide Science 19: 309-315, 1987). The single active ingredients were applied at a concentration of 2.78% in the dried coating. In the combinations, both actives were applied at 2.78%, resulting in […] of total active ingredient.

SMILES | Coverage CO (percentage coverage) | Dry weight Dw (dry weight of fouling organisms) | Fresh weight Fw (fresh weight of fouling organisms) | Coverage % Eo (observed efficacy) | Dry weight % Eo (observed efficacy) | Fresh weight % Eo (observed efficacy)
N#Cc1c(-c2ccc(Cl)cc2)[nH]c(C(F)(F)F)c1Br [(I), 4-bromo-2-(4-chlorophenyl)-5-(trifluoromethyl)-1H-pyrrole-3-carbonitrile] | 42.5% | 1.94 gram | 2.90 gram | 19.8% | 37.9% | 36.0%
COc1cc(CNC(=O)CCCC/C=C/C(C)C)ccc1O [(II-d), capsaicine] | 65.0% | 3.58 gram | 5.50 gram | −22.6% | −14.6% | −21.3%
Clc1cccc(Cl)c1N=C1NCCN1 [(II-e), clonidine] | 72.5% | 3.92 gram | 6.10 gram | −36.8% | −25.6% | −33.8%
O=C(O)/C=C/c1ccc(OS(=O)(=O)O)cc1 [(II-r), zosteric acid] | 57.5% | 2.05 gram | 5.40 gram | −8.5% | 34.5% | −18.4%
